Measured values reported in patent publication US20250101038A1, “COMPOUNDS” (priority 2021, published 2025).
Like-named read-outs stand apart in the source and are kept apart here.

Legend:
5-HT2B receptor = biological target: T1, 5-HT2B receptor (Homo sapiens, UniProt P41595); assay: cell-based
T1 construct: host or cells: CHO-K1

5-HT2A receptor = biological target: T2, 5-HT2A receptor (Homo sapiens, UniProt P28223); assay: FLIPR Ca2+ flux functional assay, 5-HT2A; assay type: cell-based
T2 construct: host or cells: HEK293
T2 sequence (P28223 whole entry): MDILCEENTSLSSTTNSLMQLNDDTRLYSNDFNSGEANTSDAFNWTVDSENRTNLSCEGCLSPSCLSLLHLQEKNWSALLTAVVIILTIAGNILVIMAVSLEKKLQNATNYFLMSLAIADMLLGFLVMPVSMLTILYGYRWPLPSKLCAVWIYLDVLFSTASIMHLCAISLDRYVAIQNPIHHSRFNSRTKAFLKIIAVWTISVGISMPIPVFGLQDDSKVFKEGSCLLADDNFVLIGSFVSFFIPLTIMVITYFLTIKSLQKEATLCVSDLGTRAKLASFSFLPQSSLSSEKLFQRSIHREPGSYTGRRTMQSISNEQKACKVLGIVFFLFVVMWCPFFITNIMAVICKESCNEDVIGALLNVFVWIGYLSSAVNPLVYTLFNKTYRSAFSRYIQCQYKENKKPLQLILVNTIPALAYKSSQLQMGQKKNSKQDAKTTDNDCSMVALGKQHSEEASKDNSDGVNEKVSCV
Method: Activity at 5-HT2A, 5-HT2B and 5-HT2C receptors was determined using a FLIPR Ca^2+ flux assay at WuXi AppTec Co. Ltd. (Hong Kong) Discovery Biology Unit according to their standard protocols. Briefly, stably transfected cells expressing the receptor of interest (HEK293 for 5-HT2A and 5-HT2C; CHO-K1 for 5-HT2B) were grown and plated in a 384 well plate and incubated at 37° C. and 5% CO2 overnight. A 250 mM stock solution of probenecid in FLIPR calcium assay buffer (10 mL) was freshly prepared and combined with a fluorescent dye (Fluo-4 Direct) to give a final assay concentration of 2.5 mM. Reference compounds were 4-fold serially diluted and the screening compounds were 3-fold serially diluted in 100% DMSO for 10 points using Agilent Bravo, and 750 nL was added to a 384 well compound plate using Echo along with 30 μL assay buffer. The fluorescent dye was then added to the assay plate along with assay buffer to a final volume of […]. The cell plate was incubated for 50 min at 37° C. and 5% CO2 and placed into the FLIPR Tetra along with the compound plate. 10 μL of references and compounds were then transferred from the compound plate into the cell plate and the fluorescent signal was read.

5-HT2C receptor = biological target: T3, 5-HT2C receptor (Homo sapiens, UniProt P28335); assay: cell-based
T3 construct: host or cells: HEK293
T3 sequence (P28335 33-458): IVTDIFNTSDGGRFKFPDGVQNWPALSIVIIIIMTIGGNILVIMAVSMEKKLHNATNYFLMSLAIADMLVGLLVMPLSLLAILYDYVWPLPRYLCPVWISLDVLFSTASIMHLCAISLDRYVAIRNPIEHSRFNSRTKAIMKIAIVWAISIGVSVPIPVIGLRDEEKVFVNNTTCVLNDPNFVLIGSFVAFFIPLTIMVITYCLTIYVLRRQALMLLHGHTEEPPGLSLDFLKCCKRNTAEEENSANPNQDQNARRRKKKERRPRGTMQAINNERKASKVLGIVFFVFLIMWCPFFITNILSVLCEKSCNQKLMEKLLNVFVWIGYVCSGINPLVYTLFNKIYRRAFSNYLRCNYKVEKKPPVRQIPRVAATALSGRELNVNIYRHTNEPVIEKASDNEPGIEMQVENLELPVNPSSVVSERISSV

[1] = agonist activity, Ca2+ flux, CHO-K1 cells
[2] = agonist activity, Ca2+ flux, HEK293 cells
[3] = agonist activity, Ca2+ flux, CHO-K1 cells, read-out: 5-HT2B EC50
[4] = agonist activity, Ca2+ flux, HEK293 cells, read-out: 5-HT2A EC50
[5] = agonist activity, Ca2+ flux, HEK293 cells, read-out: 5-HT2C EC50

T1 sequence (P41595 whole entry): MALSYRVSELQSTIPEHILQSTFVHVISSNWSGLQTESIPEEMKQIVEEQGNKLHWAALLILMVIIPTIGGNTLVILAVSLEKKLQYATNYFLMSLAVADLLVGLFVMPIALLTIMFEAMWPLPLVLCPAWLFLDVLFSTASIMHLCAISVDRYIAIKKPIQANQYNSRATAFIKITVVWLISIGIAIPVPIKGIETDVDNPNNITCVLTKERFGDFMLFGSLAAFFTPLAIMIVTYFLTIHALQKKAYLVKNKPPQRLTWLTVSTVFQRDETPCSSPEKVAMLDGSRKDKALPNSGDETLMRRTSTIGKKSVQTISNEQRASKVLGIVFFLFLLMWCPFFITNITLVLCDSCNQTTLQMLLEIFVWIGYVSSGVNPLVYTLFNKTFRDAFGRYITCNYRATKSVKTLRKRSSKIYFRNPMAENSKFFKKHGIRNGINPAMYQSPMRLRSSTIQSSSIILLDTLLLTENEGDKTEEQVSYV

SMILES | Emax (5-HT2B receptor; [1]) | Emax (5-HT2A receptor; [2]) | Emax (5-HT2C receptor; [2]) | EC50 (5-HT2B receptor; [3]) | EC50 (5-HT2A receptor; [4]) | EC50 (5-HT2C receptor; [5]) | EC50 (5-HT2B receptor) | EC50 (5-HT2A receptor) | EC50 (5-HT2C receptor) | 5-HT2B Emax (5-HT2B receptor; [1]) | 5-HT2A Emax (5-HT2A receptor; [2]) | 5-HT2C Emax (5-HT2C receptor; [2])
CCN(C)CCc1c[nH]c2c(C)ccc(O)c12 [Example P-85, 3-(2-(ethyl(methyl)amino)ethyl)-7-methyl-1H-indol-4-ol] | 0.13% | 52% | 26.9% | – | – | – | – | – | – | – | – | –
CCCN(C)CCc1c[nH]c2c(C)cc(OC)cc12 [Example P-52, N-(2-(5-methoxy-7-methyl-1H-indol-3-yl)ethyl)-N-methylpropan-1-amine] | 1.37% | 58% | 44.5% | > 10000 nM | 161 nM | 529 nM | – | – | – | – | – | –
CCCN(CCC)CCc1c[nH]c2cc(C)c(OC)cc12 [Example P-48, N,N-dipropyl-2-(5-methoxy-6-methyl-1H-indol-3-yl)ethan-1-amine] | 56.8% | 77.5% | 74% | – | – | – | – | – | – | – | – | –
CCN(C)CCc1c[nH]c2ccc(C)c(O)c12 [Example P-64, 3-(2-(ethyl(methyl)amino)ethyl)-5-methyl-1H-indol-4-ol] | 2.42% | 79% | 61% | ≥ 10000 nM | 62.2 nM | 141 nM | – | – | – | – | – | –
COc1ccc2[nH]cc(CCN(C)C(C)C)c2c1C [Example P-38, N-(2-(5-methoxy-4-methyl-1H-indol-3-yl)ethyl)-N-methylpropan-2-amine] | 45.4% | 83.3% | 23.7% | 659 nM | 189 nM | > 10000 nM | – | – | – | – | – | –
Cc1ccc2[nH]cc(CCN(C)C(C)C)c2c1O [Example P-66, 3-(2-(isopropyl(methyl)amino)ethyl)-5-methyl-1H-indol-4-ol] | 2.07% | 94.7% | 50.3% | ≥ 10000 nM | 91.9 nM | 391 nM | – | – | – | – | – | –
CN(C)CCc1c[nH]c2cc3ccoc3cc12 [Example P-2, 2-(5H-Furo[2,3-f]indol-7-yl)-N,N-dimethylethan-1-amine] | -1.07% | 46.5% | 80.6% | > 10000 nM | 207 nM | 56.8 nM | – | – | – | – | – | –
CCN(C)CCc1c[nH]c2ccc(F)c(OC)c12 [Example P-92, N-ethyl-2-(5-fluoro-4-methoxy-1H-indol-3-yl)-N-methylethan-1-amine] | 25.1% | 78% | 75.3% | > 10000 nM | 7.33 nM | 17.9 nM | – | – | – | – | – | –
COc1cc2c(CCN(C)C)c[nH]c2cc1C [Example P-7, 2-(5-methoxy-6-methyl-1H-indol-3-yl)-N,N-dimethylethan-1-amine] | 1.71% | 81.9% | 81.1% | > 10000 nM | 15.8 nM | 110 nM | – | – | – | – | – | –
CCN(CC)CCc1c[nH]c2c(C)cc(OC)cc12 [Example P-54, N, N-diethyl-2-(5-methoxy-7-methyl-1H-indol-3-yl)ethan-1-amine] | 7.69% | 82.8% | 58% | > 10000 nM | 249 nM | 1750 nM | – | – | – | – | – | –
COc1c(F)ccc2[nH]cc(CCN(C)C(C)C)c12 [Example P-93, N-(2-(5-fluoro-4-methoxy-1H-indol-3-yl)ethyl)-N-methylpropan-2-amine] | 51.5% | 95.3% | 85.1% | 24.8 nM | 7.25 nM | 45.2 nM | – | – | – | – | – | –
COc1cc(C)c2[nH]cc(CCN(C)C)c2c1 [Example P-50, 2-(5-methoxy-7-methyl-1H-indol-3-yl)-N,N-dimethylethan-1-amine] | 0.5% | 66.2% | 56.4% | > 10000 nM | 64 nM | 538 nM | – | – | – | – | – | –
CCCN(CC)CCc1c[nH]c2c(C)cc(OC)cc12 [Example P-55, N-ethyl-N-(2-(5-methoxy-7-methyl-1H-indol-3-yl)ethyl)propan-1-amine] | 13.2% | 81.8% | 57.9% | > 10000 nM | 134 nM | 1810 nM | – | – | – | – | – | –
CCN(CC)CCc1c[nH]c2c(C)ccc(OC)c12 [Example P-82, N,N-diethyl-2-(4-methoxy-7-methyl-1H-indol-3-yl)ethan-1-amine] | 0.89% | 42.4% | 76.7% | > 10000 nM | 283 nM | 417 nM | – | – | – | – | – | –
CCN(CC)CCc1c[nH]c2c(C)ccc(O)c12 [Example P-88, 3-(2-(diethylamino)ethyl)-7-methyl-1H-indol-4-ol] | -0.07% | 61.1% | 25.4% | ≥ 10000 nM | 189 nM | 1300 nM | – | – | – | – | – | –
CN(C)CCc1c[nH]c2ccc3oc(=O)[nH]c3c12 [Example P-125, 8-(2-(dimethylamino)ethyl)-1,6-dihydro-2H-oxazolo[4,5-e]indol-2-one] | 42.5% | 75.5% | 56.7% | – | – | – | 14.3 nM | 48.5 nM | 538 nM | – | – | –
CN(C)CCc1c[nH]c2c(F)cc(F)cc12 [Example P-156, 2-(5,7-difluoro-1H-indol-3-yl)-N,N-dimethylethan-1-amine] | -4.13% | 48% | 85.2% | > 10000 nM | 41.1 nM | 11.3 nM | – | – | – | – | – | –
CCN(CCc1c[nH]c2ccc(C)c(OC)c12)C(C)C [Example P-62, N-ethyl-N-(2-(4-methoxy-5-methyl-1H-indol-3-yl)ethyl)propan-2-amine] | 61.5% | 41.9% | 65.9% | 5320 nM | 319 nM | 1290 nM | – | – | – | – | – | –
CCN(CCc1c[nH]c2cc(F)cc(OC)c12)C(C)C [Example P-99, N-ethyl-N-(2-(6-fluoro-4-methoxy-1H-indol-3-yl)ethyl)propan-2-amine] | 116% | 81.4% | 79.3% | 913 nM | 30.7 nM | 755 nM | – | – | – | – | – | –
CCCN(CC)CCc1c[nH]c2cc(C)c(OC)cc12 [Example P-46, N-ethyl-N-(2-(5-methoxy-6-methyl-1H-indol-3-yl)ethyl)propan-1-amine] | – | – | – | 524 nM | 33.3 nM | 778 nM | – | – | – | 37.67% | 86.81% | 82.79%
CCCN(CCC)CCc1c[nH]c2c(C)ccc(O)c12 [Example P-89, 3-(2-(dipropylamino)ethyl)-7-methyl-1H-indol-4-ol] | 6.63% | 118% | 54.7% | ≥ 10000 nM | 48.6 nM | 889 nM | – | – | – | – | – | –
Cc1ccc(O)c2c(CCN(C(C)C)C(C)C)c[nH]c12 [Example P-90, 3-(2-(diisopropylamino)ethyl)-7-methyl-1H-indol-4-ol] | 15.7% | 95.1% | 50.2% | ≥ 10000 nM | 817 nM | 9970 nM | – | – | – | – | – | –
CCN(C)CCc1c[nH]c2ccc3ocnc3c12 [Example P-127, N-ethyl-N-methyl-2-(6H-oxazolo[4,5-e]indol-8-yl)ethan-1-amine] | 10.5% | 54% | 70.5% | – | – | – | > 10000 nM | 12 nM | 30.7 nM | – | – | –
CC(C)N(C)CCc1c[nH]c2ccc3ocnc3c12 [Example P-128, N-(2-(6H-oxazolo[4,5-e]indol-8-yl)ethyl)-N-methylpropan-2-amine] | 16.8% | 83.8% | 58% | > 10000 nM | 14.3 nM | 67.8 nM | – | – | – | – | – | –
CCCN(CCC)CCc1c[nH]c2c(C)cc(OC)cc12 [Example P-57, N, N-dipropyl-2-(5-methoxy-7-methyl-1H-indol-3-yl)ethan-1-amine] | 9.45% | 79.2% | 30.7% | > 10000 nM | 140 nM | 2860 nM | – | – | – | – | – | –
CCN(CCc1c[nH]c2cc(C)c(OC)cc12)C(C)C [Example P-47, N-ethyl-N-(2-(5-methoxy-6-methyl-1H-indol-3-yl)ethyl)propan-2-amine] | 43.2% | 64.7% | 80.8% | – | – | – | – | – | – | – | – | –
COc1ccc(F)c2[nH]cc(CCN(C)C)c12 [Example P-101, 2-(7-fluoro-4-methoxy-1H-indol-3-yl)-N,N-dimethylethan-1-amine] | 4.06% | 71.6% | 53.1% | > 10000 nM | 3.84 nM | 8.28 nM | – | – | – | – | – | –
